Experimental data taken from patent US11957759B1, “Rapidly accelerated fibrosarcoma (RAF) degrading compounds and associated methods of use” (Arvinas Operations, Inc., priority 2022, dated 2024).

How the values were obtained:
[1] = biological target: T1, B-RAF V600E (Homo sapiens, UniProt P15056, V600E); experiment: Target protein degradation, assay C: T-Rex 293 cells, HA-BRAF_V600E, 384 well format; type: cell-based; conditions: T-Rex 293 HA-BRAF_V600E cells, 24 hours, Examples 83-269; for DC50: Assay C; for Dmax: T-REx-293, Assay C
T1 construct: expressed in transfected cells; host or cells: T-Rex 293 cells (Invitrogen #R71007)
T1 sequence (P15056 whole entry V600E): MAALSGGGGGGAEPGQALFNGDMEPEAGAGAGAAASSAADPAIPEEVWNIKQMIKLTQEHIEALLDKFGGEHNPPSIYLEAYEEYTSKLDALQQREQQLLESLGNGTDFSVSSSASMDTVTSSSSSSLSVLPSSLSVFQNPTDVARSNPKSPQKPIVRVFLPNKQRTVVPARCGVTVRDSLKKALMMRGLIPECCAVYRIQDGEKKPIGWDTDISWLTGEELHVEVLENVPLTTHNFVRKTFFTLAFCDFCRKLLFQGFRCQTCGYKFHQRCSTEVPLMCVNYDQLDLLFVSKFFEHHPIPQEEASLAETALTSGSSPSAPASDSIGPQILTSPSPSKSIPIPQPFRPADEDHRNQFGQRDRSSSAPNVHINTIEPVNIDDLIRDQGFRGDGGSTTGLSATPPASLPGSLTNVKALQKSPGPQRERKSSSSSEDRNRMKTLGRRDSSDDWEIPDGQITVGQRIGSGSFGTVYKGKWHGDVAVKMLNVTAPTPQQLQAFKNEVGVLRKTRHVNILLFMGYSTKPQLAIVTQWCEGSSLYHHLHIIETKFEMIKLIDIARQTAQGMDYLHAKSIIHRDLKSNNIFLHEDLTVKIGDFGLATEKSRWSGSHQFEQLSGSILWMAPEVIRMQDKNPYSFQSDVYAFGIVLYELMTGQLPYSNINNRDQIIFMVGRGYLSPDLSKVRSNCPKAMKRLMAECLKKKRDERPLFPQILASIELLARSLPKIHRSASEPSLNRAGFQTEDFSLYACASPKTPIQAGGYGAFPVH
Method: C. T-Rex 293 Cells (384 Well Format)
(§1) T-Rex 293 cells were purchased from Invitrogen (#R71007), and stably transfected with a pcDNA4/TO_HA-BRAF_V600E construct, using 400 ug Zeocin for selection. V600E cells are plated in DMEM media (Gibco #11965118) containing 10% FBS (Gibco #16000044), 1% penicillin-streptomycin (ThermoFisher #15140122), 1:250 zeocin (Invitrogen #R-25005), and 1 ng/mL doxycycline (Selleckchem #4163) at a density of 7,500 cells/well in 45 μl on PDL coated, black clear bottom 384 well plates (Corning #354663) and incubated at 37° C.+5% CO2 for 24 hours. The following day, PROTAC compounds in a 1:3 11 point dilution are diluted into DMEM media using an Agilent Bravo. 5 ul of PROTACs suspended in DMEM media are added to the cells, with a final assay concentration ranging from 300 nM to 5 pM in 0.5% DMSO. Plates are incubated at 37° C.+5% CO2 for 24 hours. At the end of treatment, media is aspirated, and cells are fixed in 50 uL 4% PFA (EMS #15710) in PBS++(PBS, 1 mM CaCl, 1 mM MgCl) at RT for 15 minutes. Cells are washed 2× with 60 uL PBS++ and permeabilized in 50 uL 1% Triton X-100 (Sigma #93443) in PBS++ for 5 minutes at RT. Cells are washed in PBS++ prior to blocking with 50 uL Licor blocking buffer (Licor #927-60001) for 1 hour at RT. HA-tagged BRAF was stained using 50 uL HA antibody (CST #3724) at 1:1000 in Licor blocking buffer for two hours at RT. Primary is aspirated before adding 50 ul of secondary antibody solution containing 1:1000 Hoechst (ThermoFisher #62249), 1:1000 HCS CellMask Deep Red Stain (ThermoFisher #H32721), and 1:5000 goat anti-rabbit IgG Alexa-Fluor 488 (ThermoFisher #A32731) in PBS++ for 1 hr at RT. Plates are washed 4× with 60 uL PBS++, then sealed with Adhesive Black Light Absorbing Film (VWR #89087-692) and imaged on the ThermoFisher CX7 PRO high content instrument. BRAF intensity is quantified in HCS Studio software (ThermoFisher), using a custom script, exported, analyzed using KNIME, and curve curation is performed in an ELN (Scilligence). Cell toxicity is measured via comparing number of nuclei in PROTAC treated wells to DMSO controls.
(§2) The concentration of an exemplary compound that leads to half maximal degradation (DC50) as well as the maximum degradation observed (Dmax, conventionally expressed as a percentage of control) is shown below in Table 2.

[2] = biological target: T2, B-RAF G466V (Homo sapiens, UniProt P15056, G466V); experiment: Target protein degradation, assay D: T-Rex 293 cells, HA-BRAF_G466V, 384 well format; type: cell-based; conditions: T-Rex 293 HA-BRAF_G466V cells, 24 hours, Examples 83-269; for DC50: Assay D; for Dmax: T-REx-293, Assay D
T2 construct: expressed in transfected cells; host or cells: T-Rex 293 cells (Invitrogen #R71007)
T2 sequence (P15056 whole entry G466V): as the sequence (P15056 whole entry V600E) above, with G466V, E600V counted along it
Method: D. T-Rex 293 Cells (384 Well Format)
as §1, with “pcDNA4/TO_HA-BRAF_G466V” for “pcDNA4/TO_HA-BRAF_V600E”, “G466V” for “V600E”
as §2

Compound | DC50 [1] | Dmax [1] | DC50 [2] | Dmax [2]
CCN(C)S(=O)(=O)Nc1ccc(F)c(Oc2ccc3ncn(-c4ccc(N5CCN(CC6CN(c7ccc8c(c7)CN(C7CCC(=O)NC7=O)C8=O)C6)CC5)cc4)c(=O)c3c2)c1C#N (centres unmarked) [Example 181, 2-[(3-{4-[4-({1-[2-(2,6-dioxopiperidin-3-yl)-1-oxo-2,3-dihydro-1H-isoindol-5-yl]azetidin-3-yl}methyl)piperazin-1-yl]phenyl}-4-oxo-3,4-dihydroquinazolin-6-yl)oxy]-6-{[ethyl(methyl)sulfamoyl]amino}-3-fluorobenzonitrile] | 50 to 500 nM | 35 to 70% | 1 to 10 nM | ≤ 35%
N#Cc1c(NS(=O)(=O)N2CC[C@@H](F)C2)ccc(F)c1Oc1ccc2ncn(-c3ccc(N4CCC(CN5CC6(CCC(c7ccc8c(c7)CN(C7CCC(=O)NC7=O)C8=O)CC6)C5)C4)cc3)c(=O)c2c1 (single isomer, unassigned) [Example 260, (3R)-N-(2-cyano-3-{[3-(4-{3-[(7-{2-[(3R*)-2,6-dioxopiperidin-3-yl]-1-oxo-2,3-dihydro-1H-isoindol-5-yl}-2-azaspiro[3.5]nonan-2-yl)methyl]pyrrolidin-1-yl}phenyl)-4-oxo-3,4-dihydroquinazolin-6-yl]oxy}-4-fluorophenyl)-3-fluoropyrrolidine-1-sulfonamide] | 50 to 500 nM | 35 to 70% | 1 to 10 nM | ≥ 70%
N#Cc1c(NS(=O)(=O)N2CC[C@@H](F)C2)ccc(F)c1Oc1ccc2ncn(-c3ccc(N4CCC5(CC4)CN(CC4CCN(c6ccc7c(c6)CN([C@@H]6CCC(=O)NC6=O)C7=O)CC4)C5)cc3)c(=O)c2c1 [Example 203, (3R)-N-(2-cyano-3-{[3-(4-{2-[(1-{2-[(3R)-2,6-dioxopiperidin-3-yl]-1-oxo-2,3-dihydro-1H-isoindol-5-yl}piperidin-4-yl)methyl]-2,7-diazaspiro[3.5]nonan-7-yl}phenyl)-4-oxo-3,4-dihydroquinazolin-6-yl]oxy}-4-fluorophenyl)-3-fluoropyrrolidine-1-sulfonamide] | 50 to 500 nM | 35 to 70% | 1 to 10 nM | 35 to 70%

Next, values leading:

DC50 [1] | Dmax [1] | DC50 [2] | Dmax [2] | Compound
50 to 500 nM | 35 to 70% | 10 to 30 nM | ≤ 35% | N#Cc1c(NS(=O)(=O)N2CC[C@@H](F)C2)ccc(F)c1Oc1ccc2ncn(-c3ccc(N4CCC(CN5CCN(CC6CCN(c7ccc8c(c7)CN([C@@H]7CCC(=O)NC7=O)C8=O)CC6)CC5)CC4)cc3)c(=O)c2c1 [Example 186, (3R)-N-{2-cyano-3-[(3-{4-[4-({4-[(1-{2-[(3R)-2,6-dioxopiperidin-3-yl]-1-oxo-2,3-dihydro-1H-isoindol-5-yl}piperidin-4-yl)methyl]piperazin-1-yl}methyl)piperidin-1-yl]phenyl}-4-oxo-3,4-dihydroquinazolin-6-yl)oxy]-4-fluorophenyl}-3-fluoropyrrolidine-1-sulfonamide]
50 to 500 nM | ≥ 70% | 1 to 10 nM | ≥ 70% | N#Cc1c(NS(=O)(=O)N2CC[C@@H](F)C2)ccc(F)c1Oc1ccc2ncn(-c3ccc(N4CCN(CC5CC6(C5)CN(c5ccc7c(c5)CN([C@H]5CCC(=O)NC5=O)C7=O)C6)CC4)cc3)c(=O)c2c1 [Example 179, (3R)—N-(2-cyano-3-{[3-(4-{4-[(2-{2-[(3S)-2,6-dioxopiperidin-3-yl]-1-oxo-2,3-dihydro-1H-isoindol-5-yl}-2-azaspiro[3.3]heptan-6-yl)methyl]piperazin-1-yl}phenyl)-4-oxo-3,4-dihydroquinazolin-6-yl]oxy}-4-fluorophenyl)-3-fluoropyrrolidine-1-sulfonamide]
5 to 50 nM | 35 to 70% | 1 to 10 nM | ≤ 35% | N#Cc1c(NS(=O)(=O)N2CC[C@@H](F)C2)ccc(F)c1Oc1ccc2ncn(-c3cnc(N4CCN(CC5CCN(c6ccc7c(c6)CN(C6CCC(=O)NC6=O)C7=O)CC5)CC4)cn3)c(=O)c2c1 (stereo partly drawn) [Example 89, (3R)-N-{2-cyano-3-[(3-(5-[4-({1-[2-(2,6-dioxopiperidin-3-yl)-1-oxo-2,3-dihydro-1H-isoindol-5-yl]piperidin-4-yl}methyl)piperazin-1-yl]pyrazin-2-yl}-4-oxo-3,4-dihydroquinazolin-6-yl)oxy]-4-fluorophenyl}-3-fluoropyrrolidine-1-sulfonamide]
50 to 500 nM | 35 to 70% | 10 to 30 nM | 35 to 70% | N#Cc1c(NS(=O)(=O)N2CC[C@@H](F)C2)ccc(F)c1Oc1ccc2ncn(-c3ccc(N4CCN(CC5CCN(c6cc7c(c(OC(F)(F)F)c6)C(=O)N(C6CCC(=O)NC6=O)C7)CC5)CC4)cc3)c(=O)c2c1 (stereo partly drawn) [Example 265, (3R)-N-{2-cyano-3-[(3-{4-[4-({1-[2-(2,6-dioxopiperidin-3-yl)-1-oxo-7-(trifluoromethoxy)-2,3-dihydro-1H-isoindol-5-yl]piperidin-4-yl}methyl)piperazin-1-yl]phenyl}-4-oxo-3,4-dihydroquinazolin-6-yl)oxy]-4-fluorophenyl}-3-fluoropyrrolidine-1-sulfonamide]
50 to 500 nM | 35 to 70% | 1 to 10 nM | 35 to 70% | N#Cc1c(NS(=O)(=O)N2CC[C@@H](F)C2)ccc(F)c1Oc1ccc2ncn(-c3cccc(C4CCN(CC5CCN(c6ccc7c(c6)CN([C@H]6CCC(=O)NC6=O)C7=O)CC5)C4)c3)c(=O)c2c1 (stereo partly drawn) [Example 211, (3R)-N-(2-cyano-3-{[3-(3-{1-[(1-{2-[(3S)-2,6-dioxopiperidin-3-yl]-1-oxo-2,3-dihydro-1H-isoindol-5-yl}piperidin-4-yl)methyl]pyrrolidin-3-yl}phenyl)-4-oxo-3,4-dihydroquinazolin-6-yl]oxy}-4-fluorophenyl)-3-fluoropyrrolidine-1-sulfonamide]
